Tests used:
Assay type in all cases: in vivo
[1] = system: ALOMY: Alopecurus myosuroides; assay: Pre-emergence herbicidal effect; conditions: application rate 320 g/ha, scored visually after 3 weeks, 100% = plants have died, 0% = like control plants
Text: (§1) 1. Pre-Emergence Herbicidal Effect and Crop Plant Compatibility Seeds of monocotyledonous and dicotyledonous weed plants and crop plants are laid out in sandy loam soil in wood-fiber pots and covered with soil. The compounds of the invention, formulated in the form of wettable powders (WP) or as emulsion concentrates (EC), are then applied to the surface of the covering soil as aqueous suspension or emulsion at a water application rate equating to 600 to 800 L/ha with addition of 0.2% wetting agent. After the treatment, the pots are placed in a greenhouse and kept under good growth conditions for the trial plants. The damage to the test plants is scored visually after a test period of 3 weeks by comparison with untreated controls (herbicidal activity in percent (%): 100% activity=the plants have died, 0% activity=like control plants). [table]

[2] = system: ECHCG: Echinochloa crus-galli; assay: Pre-emergence herbicidal effect; conditions: application rate 320 g/ha, scored visually after 3 weeks, 100% = plants have died, 0% = like control plants
Text: as §1

[3] = system: LOLMU: Lolium multiflorum; assay: Pre-emergence herbicidal effect; conditions: application rate 320 g/ha, scored visually after 3 weeks, 100% = plants have died, 0% = like control plants
Text: as §1

[4] = system: MATIN: Matricaria inodora; assay: Pre-emergence herbicidal effect; conditions: application rate 320 g/ha, scored visually after 3 weeks, 100% = plants have died, 0% = like control plants
Text: as §1

[5] = system: POLCO: Polygonum convolvulus; assay: Pre-emergence herbicidal effect; conditions: application rate 320 g/ha, scored visually after 3 weeks, 100% = plants have died, 0% = like control plants
Text: as §1

[6] = system: SETVI: Setaria viridis; assay: Pre-emergence herbicidal effect; conditions: application rate 320 g/ha, scored visually after 3 weeks, 100% = plants have died, 0% = like control plants
Text: as §1

[7] = system: STEME: Stellaria media; assay: Pre-emergence herbicidal effect; conditions: application rate 320 g/ha, scored visually after 3 weeks, 100% = plants have died, 0% = like control plants
Text: as §1

[8] = system: VERPE: Veronica persica; assay: Pre-emergence herbicidal effect; conditions: application rate 320 g/ha, scored visually after 3 weeks, 100% = plants have died, 0% = like control plants
Text: as §1

[9] = system: ALOMY: Alopecurus myosuroides; assay: Post-emergence herbicidal effect; conditions: application rate 320 g/ha, treated at one-leaf stage, assessed visually after about 3 weeks, 100% = plants have died
Method: (§2) [table] 2. Post-Emergence Herbicidal Effect and Crop Plant Compatibility Seeds of monocotyledonous and dicotyledonous weed and crop plants are laid out in sandy loam soil in wood-fiber pots, covered with soil and cultivated in a greenhouse under good growth conditions. 2 to 3 weeks after sowing, the test plants are treated at the one-leaf stage. The compounds of the invention, formulated in the form of wettable powders (WP) or as emulsion concentrates (EC), are then sprayed onto the green parts of the plants as aqueous suspension or emulsion at a water application rate equating to 600 to 800 L/ha with addition of 0.2% wetting agent. After the test plants have been left to stand in the greenhouse under optimal growth conditions for about 3 weeks, the action of the preparations is assessed visually in comparison to untreated controls (herbicidal action in percent (%): 100% activity=the plants have died, 0% activity=like control plants).

[10] = system: AMARE: Amaranthus retroflexus; assay: Post-emergence herbicidal effect; conditions: application rate 320 g/ha, treated at one-leaf stage, assessed visually after about 3 weeks, 100% = plants have died
Method: as §2

[11] = system: ECHCG: Echinochloa crus-galli; assay: Post-emergence herbicidal effect; conditions: application rate 320 g/ha, treated at one-leaf stage, assessed visually after about 3 weeks, 100% = plants have died
Method: as §2

[12] = system: STEME: Stellaria media; assay: Post-emergence herbicidal effect; conditions: application rate 320 g/ha, treated at one-leaf stage, assessed visually after about 3 weeks, 100% = plants have died
Method: as §2

[13] = system: VERPE: Veronica persica; assay: Post-emergence herbicidal effect; conditions: application rate 320 g/ha, treated at one-leaf stage, assessed visually after about 3 weeks, 100% = plants have died
Method: as §2

[14] = system: VIOTR: Viola tricolor; assay: Post-emergence herbicidal effect; conditions: application rate 320 g/ha, treated at one-leaf stage, assessed visually after about 3 weeks, 100% = plants have died
Method: as §2

[15] = system: ABUTH: Abutilon theophrasti; assay: Pre-emergence herbicidal effect; conditions: application rate 320 g/ha, scored visually after 3 weeks, 100% = plants have died, 0% = like control plants
Text: as §1

Row | SMILES | Herbicidal activity with respect to [%] ALOMY [1] [%] | Herbicidal activity with respect to [%] ECHCG [2] [%] | Herbicidal activity with respect to [%] LOLMU [3] [%] | Herbicidal activity with respect to [%] MATIN [4] [%] | Herbicidal activity with respect to [%] POLCO [5] [%] | Herbicidal activity with respect to [%] SETVI [6] [%] | Herbicidal activity with respect to [%] STEME [7] [%] | Herbicidal activity with respect to [%] VERPE [8] [%] | Herbicidal activity with respect to [%] ALOMY [9] [%] | Herbicidal activity with respect to [%] AMARE [10] [%] | Herbicidal activity with respect to [%] ECHCG [11] [%] | Herbicidal activity with respect to [%] STEME [12] [%] | Herbicidal activity with respect to [%] VERPE [13] [%] | Herbicidal activity with respect to [%] VIOTR [14] [%] | Herbicidal activity with respect to [%] ABUTH [15] [%]
1 | Nc1nc(NC2CCOc3ccc(F)cc32)nnc1C(F)(F)F (racemic) [Example 1.49] | 100 | 100 | 100 | 100 | 100 | 100 | 100 | 100 | 80 | 80 | 80 | 90 | 100 | 90 | –
2 | Cc1ccc2c(c1)[C@H](Nc1nnc(Cl)c(N)n1)[C@@H](C)C2 [Example 1.3, 6-Chloro-N^3-[(1R,2S)-2,6-dimethyl-2,3-dihydro-1H-inden-1-yl]-1,2,4-triazine-3,5-diamine] | 100 | 100 | 100 | 100 | 100 | 100 | 100 | 100 | 90 | 100 | 80 | 100 | 100 | 100 | 100
3 | CCOC(=O)c1nnc(N[C@H]2c3cc(C)ccc3C[C@@H]2C)nc1N [Example 1.21] | 90 | 100 | – | 100 | 100 | 100 | – | 80 | 80 | 90 | 80 | 100 | 100 | 80 | –
4 | Nc1nc(N[C@@H]2CCCc3ccccc32)nnc1C(F)(F)F [Example 1.22] | 100 | 100 | – | 100 | 100 | 100 | 100 | 100 | 100 | 100 | 100 | 100 | 100 | 100 | 90
5 | Cc1ccc2c(c1)[C@H](Nc1nnc(C(F)(F)F)c(N)n1)[C@@H](C)C2 [Example 1.23] | 100 | 100 | 90 | 100 | 100 | 100 | 100 | 100 | 100 | 100 | 100 | 100 | 90 | 100 | 100
6 | CC(=O)c1nnc(N[C@H]2c3cc(C)ccc3C[C@@H]2C)nc1N [Example 1.26] | 100 | 100 | – | 100 | 100 | 100 | 100 | 100 | – | 90 | 100 | 100 | 100 | 100 | 100
7 | Cc1ccc2c(c1)[C@H](Nc1nnc(S(C)(=O)=O)c(N)n1)[C@@H](C)C2 [Example 1.45] | 100 | 100 | 100 | 100 | 100 | 100 | 100 | 100 | – | 80 | 100 | 90 | 90 | 90 | 90
8 | Nc1nc(NC2CCOc3ccccc32)nnc1C(F)(F)F (stereo not shown) [Example 1.47, N^3-(3,4-Dihydro-2H-chromen-4-yl)-6-(trifluoromethyl)-1,2,4-triazine-3,5-diamine] | 80 | 100 | – | 100 | 100 | 100 | 100 | 100 | 100 | 100 | 100 | 100 | 100 | 100 | –
9 | Cc1ccc2c(c1)[C@H](Nc1nnc(S(C)(=O)=O)c(N)n1)CCC2 [Example 1.68] | 100 | 100 | 100 | 100 | 100 | 100 | 100 | 100 | 100 | – | 80 | 100 | 80 | 90 | 100
10 | Cc1ccc2c(c1)[C@H](Nc1nnc([S+](C)[O-])c(N)n1)CCC2 (stereo partly shown) [Example 1.69] | 90 | 100 | 90 | 100 | 100 | 100 | 100 | 100 | 90 | 90 | 80 | 100 | 80 | 80 | –
11 | Cc1ccc2c(c1)[C@H](Nc1nnc(C(N)=O)c(N)n1)CC2 [Example 1.78] | 100 | 100 | – | 100 | 90 | 100 | – | – | 100 | 80 | – | 100 | – | 80 | 100

Source: patent US10743540B2, “3-amino-1,2,4-triazine derivatives and their use for controlling undesired plant growth” (BAYER CROPSCIENCE AKTIENGESELLSCHAFT, priority 2016, dated 2020)
